Experimental data as given in patent US8323695B2, “Method for stabilizing phenylephrine” (McNeil-PPC, Inc., priority 2007, dated 2012).
Structures can show the parent of a compound that is named as a salt.

Key:
[1] = Formation of phenylephrine-maleate adducts as a function of pH; format: physicochemical; conditions: combined with chlorpheniramine maleate
Excerpt: Phenylephrine may be unstable in the presence of active ingredients which are the soluble salts of maleic acid. Phenylephrine-Maleate adducts form when phenylephrine hydrochloride is combined with chlorpheniramine maleate in solution and in solid dosage forms. This is due to the presence of phenylephrine with maleic acid. It was discovered that a pH below 6.0 yields low levels of one type of phenylephrine-maleate adduct (degradant #1) and it was also discovered that a pH above 4.5 yields low levels of a second type of phenylephrine-maleate adduct (degradant #2).

[2] = Stability of phenylephrine in solid formulations after spray drying an acidic solution; format: physicochemical
Excerpt: Phenylephrine is known to experience physical and chemical degradation. Degradation of phenylephrine may be caused by a variety of factors including, but not limited to, the presence of oxygen, moisture, reducible sugars, bases, high temperatures, etc. […] Degradation of phenylephrine may be noticed by a change in color, e.g. changing from a whitish color to a darker, blackish color. Additionally, phenylephrine may degrade chemically as recorded by degradation peaks during analysis, such as an HPLC analysis. It is desirable to prevent, reduce or minimize the degradation of phenylephrine. An embodiment of the present invention provides a stable pharmaceutical composition having phenylephrine in a therapeutically effective amount wherein the phenylephrine has been spray dried. An additional embodiment of the present invention provides a stable composition of phenylephrine in a therapeutically effective amount wherein the phenylephrine has been layered or sprayed onto a substrate.

| Compound | levels of second type of phenylephrine-maleate adduct (degradant #2) ([1]; pH above 4.5) | levels of phenylephrine-maleate adduct (degradant #1) ([1]; pH below 6.0) | stability of phenylephrine in solid formulations [2] |
| --- | --- | --- | --- |
| CNC[C@H](O)c1cccc(O)c1 [phenylephrine hydrochloride] | low levels | low levels | – |
| CNC[C@H](O)c1cccc(O)c1 [phenylephrine] | – | – | increases the stability |
